How the values were obtained:
[1] = target: Adenosine receptor A2a (Rattus norvegicus) (UniProt P30543); assay: Percent displacement of [3H]-CGS- 21680 binding in adenosine A2A receptor of rat striatal membrane at a concentration of 10 uM
[2] = target: T1, Adenosine receptor A1 (Rattus norvegicus) (UniProt P25099); conditions: 10 uM
T1 sequence (whole entry): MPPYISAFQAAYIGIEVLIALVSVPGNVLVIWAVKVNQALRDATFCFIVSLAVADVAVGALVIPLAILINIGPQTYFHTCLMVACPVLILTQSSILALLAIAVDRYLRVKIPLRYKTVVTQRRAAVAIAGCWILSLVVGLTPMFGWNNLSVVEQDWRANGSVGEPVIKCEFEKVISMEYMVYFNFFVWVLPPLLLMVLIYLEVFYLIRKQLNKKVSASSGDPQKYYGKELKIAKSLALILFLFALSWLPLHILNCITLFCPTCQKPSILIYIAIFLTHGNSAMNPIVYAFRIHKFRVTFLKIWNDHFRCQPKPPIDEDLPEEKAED
Description: Percent displacement of [3H]DPCPX binding in adenosine A1 receptor of rat brain cortical membrane at a concentration of 10 uM

[3] = target: T2, Adenosine receptor A2a (Rattus norvegicus, UniProt P30543); assay: Displacement of [3H]-CGS- 21680 binding in adenosine A2A receptor of rat striatal membrane
T2 sequence (P30543 whole entry): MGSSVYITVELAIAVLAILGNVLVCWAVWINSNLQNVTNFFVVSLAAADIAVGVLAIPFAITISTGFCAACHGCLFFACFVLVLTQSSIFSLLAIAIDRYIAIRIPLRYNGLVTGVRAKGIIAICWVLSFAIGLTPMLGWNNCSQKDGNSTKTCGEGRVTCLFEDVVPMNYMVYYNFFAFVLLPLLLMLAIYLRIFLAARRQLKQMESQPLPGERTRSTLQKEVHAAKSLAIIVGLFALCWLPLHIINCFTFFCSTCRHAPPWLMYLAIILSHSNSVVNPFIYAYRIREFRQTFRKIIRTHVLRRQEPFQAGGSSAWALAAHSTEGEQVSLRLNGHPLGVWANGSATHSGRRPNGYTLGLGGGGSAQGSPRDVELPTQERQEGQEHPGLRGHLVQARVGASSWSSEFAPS

[4] = target: T3, Adenosine receptor A1 (Rattus norvegicus, UniProt P25099)
T3 sequence (P25099 whole entry): T1 sequence (whole entry)
Description: Displacement of [3H]DPCPX binding to adenosine A1 receptor of rat brain cortical membrane

[5] = target: Adenosine receptor A2a (Rattus norvegicus) (UniProt P30543); assay: Displacement of [3H]CGS-21680 or [3H]ZM-241,385 binding in adenosine A2A receptor of rat striatal membrane at 10 uM
[6] = target: T4, Adenosine receptor A3 (Homo sapiens, UniProt P0DMS8); assay: Displacement of [125I]AB-MECA from human adenosine A3 receptor expressed in HEK 293 cells; format: cell-based, HEK293
T4 sequence (P0DMS8 whole entry): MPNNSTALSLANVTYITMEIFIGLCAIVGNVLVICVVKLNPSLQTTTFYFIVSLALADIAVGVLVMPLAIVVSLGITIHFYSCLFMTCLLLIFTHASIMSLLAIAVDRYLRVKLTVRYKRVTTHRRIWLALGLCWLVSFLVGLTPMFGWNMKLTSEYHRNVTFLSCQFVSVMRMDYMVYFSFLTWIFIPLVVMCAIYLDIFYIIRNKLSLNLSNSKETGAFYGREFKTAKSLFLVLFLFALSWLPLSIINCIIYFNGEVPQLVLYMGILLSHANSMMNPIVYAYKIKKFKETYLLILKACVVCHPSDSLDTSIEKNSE

[7] = target: T1, Adenosine receptor A1 (Rattus norvegicus); assay: Displacement of [3H]DPCPX binding in adenosine A1 receptor of rat brain cortical membrane at a concentration of 10 uM
[8] = target: T5, Adenosine receptor A3 (Homo sapiens) (UniProt P0DMS8); assay: Displacement of [125I]AB-MECA from adenosine A3 receptor expressed in HEK 293 cells at 10 uM; conditions: HEK293
T5 sequence (whole entry): T4 sequence (P0DMS8 whole entry)

[9] = target: T2, Adenosine receptor A2a; assay: Displacement of [3H]-CGS-21,680 or [3H]ZM-241385 binding in adenosine A2A receptor of rat striatal membrane was determined
[10] = target: Adenosine receptor A2a (Rattus norvegicus) (UniProt P30543); assay: Percentage displacement of [3H]-CGS- 21680 binding in adenosine A2A receptor of rat striatal membrane at a concentration of 10 uM
[11] = target: T1, Adenosine receptor A1 (Rattus norvegicus); assay: Percentage displacement of [3H]DPCPX binding in adenosine A1 receptor of rat brain cortical membrane at a concentration of 10 uM
[12] = target: Adenosine receptor A2a (Rattus norvegicus) (UniProt P30543); assay: Displacement of [3H]ZM-241385 binding in adenosine A2A receptor of rat striatal membrane at a concentration of 10 uM

Chain of Adenosine receptor A2a (Rattus norvegicus) (P30543 whole entry): as the sequence (P30543 whole entry) above

COc1ccc(C(=O)Nc2nc(-c3ccccn3)cc3ccccc23)cc1
Displacement [1]: 19%
Displacement [2]: 37%
Ki [3]: > 10000 nM
Ki [4]: > 10000 nM

Cc1ccc(C(=O)Nc2nc(-c3ccccn3)cs2)cc1
Displacement [5]: 44%
Ki [6]: 3200 nM
Ki [4]: 1600 nM

COc1ccccc1NC(=O)Nc1nc(-c2cccnc2)nc2ccccc12
Ki [3]: > 10000 nM
Ki [6]: 4 nM
Ki [4]: > 10000 nM

COc1ccc(C(=O)NC2=NN(c3ccccc3)CC2)cc1
Displacement [5]: 19%
Displacement [7]: 26%
Displacement [8]: 41%

COC(=O)C1=C2C=CN(C)C=C2c2nc(-c3ccccc3)nn2C1
Ki [6]: 170 nM

COc1ccc(NC(=O)Nc2nc(-c3ccccc3)ns2)cc1
Displacement [5]: 16%
Displacement [7]: 44%
Ki [6]: 3300 nM

Cc1ccc(C(=O)Nc2nc(-c3ccccc3)ns2)cc1
Displacement [5]: 38.2%
Ki [6]: 140 nM
Ki [4]: 30 nM

COC1CCC(C(=O)Nc2nc(-c3ccccc3)ns2)CC1 (stereo in doubt; 8l)
Ki [9]: 2000 nM
Ki [6]: 5300 nM
Ki [4]: 110 nM

O=C(Nc1nc(-c2ccccc2)cc2ccccc12)c1ccccc1
Displacement [10]: 0%
Ki [6]: 1200 nM
Ki [4]: 1200 nM

COc1ccc(C(=O)Nc2cc(-c3ccccc3)ncn2)cc1
Displacement [5]: 31%
Ki [6]: 800 nM

O=C(Nc1nc(-c2ccccc2)ns1)C1CCC(O)CC1 (stereo in doubt) [listing 1 of 2 here]
Ki [6]: 1900 nM
Ki [4]: 20 nM

COc1ccc(C(=O)Nc2nc(-c3ccccc3)cs2)cc1
Ki [9]: 1900 nM
Ki [6]: 670 nM
Ki [4]: 76 nM

COC1CCC(C(=O)Nc2nc(-c3ccccc3)ns2)CC1 (stereo in doubt; 8k)
Ki [9]: 1900 nM
Ki [6]: 1700 nM
Ki [4]: 32 nM

O=C(Nc1ccccc1)Nc1nc(-c2ccccc2)ns1
Displacement [5]: 48%
Ki [6]: 4000 nM
Ki [4]: 1000 nM

O=C(Nc1nc(-c2ccccc2)ns1)c1ccc([N+](=O)[O-])cc1
Displacement [5]: 5%
Displacement [7]: 34%
Displacement [8]: 28%

COc1ccc(C(=O)Nc2cccc(-c3ccccc3)n2)cc1
Displacement [5]: 16%
Displacement [7]: 46%
Ki [6]: 8700 nM

CC(C)Oc1ccc(C(=O)Nc2nc(-c3ccccn3)cs2)cc1
Displacement [5]: 44%
Ki [6]: 3700 nM
Ki [4]: 5800 nM

O=C(O)COc1ccc(C(=O)Nc2nc(-c3ccccc3)ns2)cc1
Ki [9]: 15000 nM
Ki [6]: 1200 nM
Ki [4]: 100 nM

O=C(Nc1nc(-c2ccccn2)cs1)c1ccc(Cl)cc1
Displacement [5]: 30%

O=C(Nc1nc(-c2ccccc2)nc2ccccc12)c1ccccc1
Displacement [10]: 17%
Displacement [11]: 34%
Ki [6]: 240 nM

COc1ccc(C(=O)Nc2cc(-c3ccccc3)[nH]n2)cc1
Displacement [5]: 16%
Displacement [7]: 20%
Displacement [8]: 35%

COc1ccccc1NC(=O)Nc1nc(-c2ccccc2)ns1
Displacement [5]: 38%
Displacement [7]: 27%
Displacement [8]: 20%

O=C(Nc1nc(-c2ccccc2)ns1)C1CCC(O)CC1 (stereo in doubt) [listing 2 of 2 here]
Displacement [5]: 37%

COc1ccc(C(=O)Nc2nc(-c3ccccc3)cc3ccccc23)cc1
Displacement [10]: 35%
Ki [6]: 79 nM
Ki [4]: 3000 nM

O=C(Nc1nc(-c2ccccc2)ns1)c1ccc(I)cc1
Displacement [5]: 19%
Displacement [7]: 49%
Ki [6]: 1100 nM

O=C(Nc1nc(-c2ccccn2)cs1)C1CCCC1
Ki [9]: 1300 nM
Ki [6]: 2100 nM
Ki [4]: 920 nM

O=C(Nc1nc(-c2ccccn2)cs1)c1ccc(Cl)c(Cl)c1
Displacement [5]: 20%
Ki [6]: 2500 nM
Ki [4]: 1600 nM

O=C(Nc1ccccc1)Nc1nc(-c2ccccc2)cs1
Displacement [12]: 19%
Displacement [11]: 37%
Ki [6]: 9900 nM

O=C(Nc1nc(-c2ccccn2)cs1)c1ccccc1
Ki [9]: 8700 nM
Ki [6]: 3400 nM
Ki [4]: 1700 nM

COc1ccc(C(=O)Nc2cccc(-c3ccccc3)c2)cc1
Displacement [5]: 41%
Displacement [7]: 30%
Ki [6]: 10000 nM

COc1ccc(C(=O)Nc2nc(-c3ccccc3)ns2)cc1
Ki [9]: 2300 nM
Ki [6]: 82 nM
Ki [4]: 32 nM

O=C(Nc1nc(-c2ccccc2)ns1)c1ccccc1
Ki [9]: 4400 nM
Ki [6]: 410 nM
Ki [4]: 31 nM

Nc1nc2ccc(Cl)cc2c2nc(-c3ccco3)nn12 [CGS-15943]
Ki [6]: 140 nM

O=C(Nc1ccccc1)Nc1nc(-c2ccccn2)cs1
Ki [9]: 920 nM
Ki [6]: 5000 nM
Ki [4]: 930 nM

O=C(Nc1nc(-c2ccccc2)ns1)C1CCC(O)CC1 (stereo in doubt; 8n) [listing 1 of 2 here]
Ki [6]: 2700 nM
Ki [4]: 42 nM

O=C(Nc1nc(-c2ccccn2)cc2ccccc12)c1ccccc1
Displacement [10]: 0%

O=C(Nc1nc(-c2ccccc2)ns1)C1CCC(O)CC1 (stereo in doubt; 8n) [listing 2 of 2 here]
Displacement [5]: 41%

O=C(Nc1nc(-c2ccccc2)ns1)c1ccc(Cl)cc1
Displacement [5]: 36%
Ki [6]: 520 nM
Ki [4]: 41 nM

COc1ccc(C(=O)Nc2nc(-c3ccccc3)ns2)cc1C
Displacement [5]: 8%
Displacement [7]: 48%
Ki [6]: 580 nM

O=C(Nc1nc(-c2ccccn2)nc2ccccc12)c1ccccc1
Displacement [10]: 9%
Displacement [11]: 16%

COc1ccc(C(=O)Nc2nc(-c3ccccn3)cs2)cc1
Displacement [5]: 40%
Ki [6]: 1800 nM
Ki [4]: 3200 nM

O=C(Nc1nc(-c2ccccn2)cs1)c1ccc(I)cc1
Displacement [5]: 50%

O=C(Nc1nc(-c2ccccc2)ns1)C1CCCCC1
Displacement [5]: 16%
Ki [6]: 16000 nM
Ki [4]: 1400 nM

O=C(Nc1nc(-c2ccccc2)ns1)c1ccc(O)cc1
Ki [9]: 570 nM
Ki [6]: 130 nM
Ki [4]: 7.3 nM

O=C(Nc1nc(-c2ccccn2)cs1)c1cccc(Cl)c1
Ki [9]: 1300 nM
Ki [6]: 4600 nM
Ki [4]: 1700 nM

O=C(Nc1nc(-c2ccccn2)cs1)c1ccc([N+](=O)[O-])cc1
Displacement [5]: 29%

COc1ccc(C(=O)Nc2nc(-c3ccccc3)nc3ccccc23)cc1
Displacement [10]: 44%
Ki [6]: 27 nM
Ki [4]: 1800 nM

COc1ccc(NC(=O)Nc2nc(-c3ccccn3)cs2)cc1
Displacement [5]: 11%
Displacement [7]: 4%
Ki [6]: 147000 nM

Reference: ChEMBL document CHEMBL1134360, “Thiazole and thiadiazole analogues as a novel class of adenosine receptor antagonists” (J Med Chem, 2001)
